# Data from publication PMC5906549, “Cathelicidin-Derived Antimicrobial Peptides Inhibit Zika Virus Through Direct Inactivation and Interferon Pathway” (Frontiers in Immunology, 2018).
# Peptide text beside a SMILES is read from it.
# Assays:
# ZIKV strain MR766 = test: Direct inactivation of ZIKV by AMPs, plaque-forming assay; set-up: species or system Zika virus; details: 37°C; for Number of infectious virions after direct incubation: 10 µM peptide with ZIKV, all the time points (1, 2, 4 h), plaque assay; for Inactivation of Zika virions: plaque assay on Vero
# Procedure: Vero cells were plated into 12-well plates at 5 (10^5 cells/well the day before infection). On the day of infection, the monolayers of Vero cells were inoculated with 100 µL of 10-fold serial dilutions of viral stocks and incubated at 37 °C for 1 h. After viral inoculation, medium containing ZIKV particles was removed and 1 ml overlay containing 0.6% molecular biology grade agarose (Agarose Unlimited, Alachua, FL, USA) in Modified Eagle Medium (Gibco) with 2% FBS. Cells were maintained at 37°C in 5% CO2 for 4 days. On day 5, cells were fixed with 4% paraformaldehyde solution in PBS and stained with 1% crystal violet solution in 20% methanol in water. Viral plaques were photographed using a CanonScan 9950F scanner and each plaque was counted as a plaque-forming unit (PFU). Viral titer was calculated as PFU/[volume virus (mL) × (dilution factor)].
# Zika virus viral stocks were diluted to 10^6 PFU/mL with serum-free medium and peptides were added at the indicated final concentrations. The mixtures were incubated at 37°C for 1–4 h. At each time point, 200 µL of the mixtures was removed for virus yield determination. Ten-fold serial dilutions of the mixtures were prepared and number of infectious Zika virions in the inoculum was determined by the aforementioned plaque-forming assay on Vero cell monolayers.
# Figure 7 GF-17 directly inactivates Zika virions. (A) Experimental scheme. Briefly, Zika virus (ZIKV) virions were directly treated with antimicrobial peptides at 37°C. Part of the inoculum was removed at the indicated time points and serial diluted for the plaque-forming assay to determine the number of infectious Zika virions. (B) Quantification of the viral plaques was performed and plaque-forming unit at each of the treatment groups was shown. ANOVA and Bonferroni post-test were performed on all groups. *** p < 0.001, as compared with the ZIKV control group (CTL, control).
# Vero cells = test: in vitro
# Procedure: (§1) Cell viability was examined by the CellTiter 96 ®Aqueous One Solution Cell Proliferation Assay (Promega, Madison, WI, USA). Vero cells and astrocytes were seeded into 96-well tissue culture plates (Fisher Scientific) and treated with fresh growth medium containing different concentrations of each peptide for 2 or 4 days at 37°C. At the experimental end point, MTS [3-(4,5-dimethylthiazol-2-yl)-5-(3-carboxymethoxyphenyl)-2-(4-sulfophenyl)-2H-tetrazolium] was added to the cultures and incubated for 1 h. The absorbance at 490 nm was recorded through BioTek Gen5 data analysis software (Winooski), VT, optical density (OD) values were used as a representation of cell viability.
# (§2) (A) Vero cells were treated with doses of peptides ranging from 1 to 50 µM. After 24 h, the cultures were washed and treated with same doses of peptides in fresh medium for another 24 h. Cell viability was determined by a colorimetric MTS assay. Results shown are the averages ±SD of experiments performed in triplicate. Data were analyzed by non-linear regression. The EC50 was assessed for each of the antimicrobial peptides. (B) Vero cells were treated with doses of peptides ranging from 0.4 to 10 µM for 2 h then infected with ZIKV at the MOI of 0.5. After 24 h, the cultures were washed and treated with same doses of peptides in fresh medium for another 24 h. ZIKA RNA was detected in total cellular RNA through real-time RT-PCR. Data were normalized to GAPDH and presented as fold change (in log scale) compared with ZIKV group. ** p < 0.01 and *** p < 0.001, as compared with the ZIKV group without the peptide treatment (ANOVA, N = 3).
# (§3) A, B) Vero cells were treated with 10 µM AMPs for 2 days or 4 days as outlined in the figure. For 4-day treatment, Vero cells were repeatedly treated with 10 µM AMPs at 2-day post-treatment. At the experimental end point, cell viability was determined by a colorimetric MTS assay CellTiter 96® AQueous One Solution Assay (Promega, Madison, WI) based on the manufacture’s instruction. Results were normalized as percentage of cell viability in control astrocytes. CTL, control. * denotes p < 0.05, ** denotes p < 0.01, *** denotes p < 0.001 as compared to the control group without peptide treatment (ANOVA, N = 3).
# in vitro = details: African green monkey
# Procedure: as §1, §2, §3
EC50 at 48 h (in vitro) [µM],Structure (SMILES),Number of infectious virions after direct incubation (ZIKV strain MR766),Cytotoxicity to Vero cells at 10 µM (Vero cells),"Inactivation of Zika virions (ZIKV strain MR766; 10 µM peptide mixed with ZIKV (10^6 PFU/mL, serum-free medium), 1-h incubation) [%]","Inactivation of Zika virions (ZIKV strain MR766; 10 µM peptide mixed with ZIKV, 2-h incubation) [%]","Inactivation of Zika virions (ZIKV strain MR766; 10 µM peptide mixed with ZIKV, 4-h incubation) [%]"
> 50,"CC[C@H](C)[C@H](NC(=O)[C@H](CCCNC(=N)N)NC(=O)[C@H](CCC(N)=O)NC(=O)[C@@H](NC(=O)[C@@H](NC(=O)[C@@H](N)CCCNC(=N)N)[C@@H](C)CC)C(C)C)C(=O)N[C@@H](CCCCN)C(=O)N[C@@H](CC(=O)O)C(=O)N[C@@H](Cc1ccccc1)C(=O)N[C@@H](CC(C)C)C(=O)O [RI-10, reference compound] (H-RIVQRIKDFL-OH; N-terminus and C-terminus assumed)",did not significantly change the number of infectious virions,minimal cytotoxicity,,,
> 50,CC[C@H](C)[C@H](NC(=O)[C@H](CCCCN)NC(=O)[C@H](CCCCN)NC(=O)[C@H](Cc1ccccc1)NC(=O)[C@H](CC(C)C)NC(=O)[C@H](CCCCN)NC(=O)[C@H](CCCCN)NC(=O)[C@H](Cc1ccccc1)NC(=O)[C@H](CCCCN)NC(=O)[C@H](CCCCN)NC(=O)[C@H](CCCNC(=N)N)NC(=O)[C@H](Cc1ccccc1)NC(=O)[C@H](CCCNC(=N)N)NC(=O)[C@H](CCCCN)NC(=O)[C@H](Cc1ccccc1)NC(=O)[C@H](CCCNC(=N)N)NC(=O)CN)C(=O)N[C@@H](CO)C(=O)O [BMAP-18] (H-GRFKRFRKKFKKLFKKIS-OH; N-terminus and C-terminus assumed),did not significantly change the number of infectious virions,minimal cytotoxicity,,,
> 50,CC[C@H](C)[C@H](NC(=O)[C@H](CCCNC(=N)N)NC(=O)[C@H](CCC(N)=O)NC(=O)[C@@H](NC(=O)[C@@H](NC(=O)[C@H](CCCNC(=N)N)NC(=O)[C@H](CCCCN)NC(=O)[C@H](Cc1ccccc1)NC(=O)CN)[C@@H](C)CC)C(C)C)C(=O)N[C@@H](CCCCN)C(=O)N[C@@H](CC(=O)O)C(=O)N[C@@H](Cc1ccccc1)C(=O)N[C@@H](CC(C)C)C(=O)N[C@@H](CCCNC(=N)N)C(=O)N[C@@H](CC(N)=O)C(=O)N[C@@H](CC(C)C)C(=O)N[C@H](C(N)=O)C(C)C [GF-17] (H-GFKRIVQRIKDFLRNLV-NH2; N-terminus and C-terminus assumed),,minimal cytotoxicity,> 95,> 99,99
